From paper PMC3847131, “Functional characterization of a serine-threonine protein kinase from Bambusa balcooa that implicates in cellulose overproduction and superior quality fiber formation” (BMC Plant Biology, 2013)

Biological target: T1, BbKst-kinase (serine/threonine protein kinase BbKst)
T1 construct: kinase domain (from 2233 to 3342 bp of cDNA), His-fused, expressed in E. coli BL21
Test: in vitro […] kinase assay with purified kinase domain
Assay type: biochemical, Bambusa balcooa

## O=c1c(O)c(-c2ccc(O)c(O)c2)oc2cc(O)cc(O)c12 [quercetin]
  IC50: 7 nM
